Reference: US11472723B2, “Method for removing heavy metals from an aqueous solution” (NEWSOUTH INNOVATIONS PTY LIMITED, priority 2016, dated 2022)
Converted amounts (≈) assume the structure as drawn. “And” between values parts separate entries of the source, which are not always exact repeats. Equal values may be shown once. Read-outs that look alike come from different tables or passages of the source. Marks after values point to notes of the source that are not given here.

Assays:
[1] = literature value (footnotes a-d); cited from earlier work
[2] = Solubility in water; conditions: for Solubility in water up to minimum 0.01M: Yes/No
Excerpt: The synthesized surfactants were compared to each other with respect to their water solubility, conductivity, critical micelle concentration and foaming ability to determine basic suitability for the ion flotation process.

[3] = Foaming test; assay type: physicochemical; conditions: about one tenth of CMC in water, shaken with air, Passed/Failed
Method: A foaming test was performed by dissolving the test compound in water at a concentration of approximately one tenth of the CMC of the test compound. The solution was then placed in a stoppered vessel with air and shaken and a visual observation made as to whether a stable foam had been formed.

[4] = Critical micelle concentration (CMC) in water; assay type: physicochemical
Excerpt: In the bulk aqueous phase, surfactants form aggregates, such as micelles, at concentrations above the critical micelle concentration (CMC), where the hydrophobic tails form the core of the aggregate and the hydrophilic heads are in contact with the surrounding liquid. The CMC of a surfactant in an aqueous solution can be determined by a person skilled in the art using techniques known in the art. For example, the CMC of a surfactant can be determined by measuring changes in the conductance or surface tension of the solution at different concentrations of the surfactant.

[5] = Ion flotation of arsenic solution in bubble column, As by ICP-MS; conditions: for Arsenic removal after 90 minutes / arsenic removal: flotation; for Arsenic removal after 90 minutes: 5 ppm arsenic solution; for arsenic removal / Adsorption (%): time not stated
Method: (§1) An ICP-MS (Perkin Elmer, NexION 300D with Universal cell technology) was used to determine the arsenic, mercury and lead solution concentrations.
In a typical experiment, 0.01 M of the single chain octanoyl-cysteine surfactant was dissolved (with stirring and heating to not more than 65° C.) in a solution of arsenic (HAsO4^2−) 5 ppm containing NaOH 0.1 M (to keep the pH at about 8), which was then made up to 100 ml using Milli-Q water.
Two samples were taken after 30, 60 and 90 minutes and the arsenic concentration of each sample was determined by ICP-MS. The upper outlet foam was also collected in a waste container using an outlet tube. […]

[6] = Ion flotation of lead ions with octanoyl-cysteine surfactant; conditions: 5 ppm Pb, 0.01M surfactant
Method: as §1
(§2) In similar ion flotation experiments, the removal rates for low levels of mercury and lead ions were also determined using the octanoyl-cysteine surfactant. The experiments were carried out using both air and pure N2 gas.

[7] = Ion flotation of mercury ions with octanoyl-cysteine surfactant; conditions: 5 ppm Hg, 0.01M surfactant
Method: as §1, §2

[8] = for As(III) / As(V) / Total As removal / Total As(V) reduced to As(III) / Total conc.: feed 5320.6 μg/L, 0.01M surfactant
Method: The As(V)/As(III) speciation measurements were carried out using a PE 200 Series HPLC, using a PRPX 100 Column, attached to a PE DRC-e (Dynamic Reaction Cell-e) ICPMS. 20 milli molar ammonium phosphate buffer was used as carrier solution at 1.5 ml/min with a matched Meinhart nebuliser and baffled spray chamber. The plasma conditions used were: 1500 W RF, at a gas flow rate of […].
Column solution samples after 30 minutes, and the solution remaining inside the column after 90 minutes, were sent for arsenic speciation determination analysis. It appears that after about half an hour the maximum adsorption of arsenic was obtained because no further foam was collected at the top of the column.

[9] = 5 ppm As, 0.01M surfactant, inlet gas Air
[10] = As in the waste collector (after 30 mins.)
[11] = As remaining in the flotation cell (after 90 mins)

CCCCCCCCCCCC(=O)N[C@@H](CS)C(=O)O
CMC in water (M) [1]: 0.02 × 10^−3*^d M
solubility in water (in words) [2]: low solubility in water
Solubility in water up to minimum 0.01M [2]: No
solubility ([2]; water): 300 µM (≈ 91 µg/mL)
Foaming test [3]: Passed
CMC (in words) [4]: low CMC values

CCCCCCCCNC(=O)N[C@@H](CSSC[C@H](NC(=O)NCCCCCCCC)C(=O)O)C(=O)O [D-octyl isocyanate cystine]
CMC in water (M) [1]: 0.008*^c M
Foaming test [3]: Failed
Foaming test ([3]; listed as double chain-octyl isocyanate cystine): produced no foaming in solution
CMC (in words) [4]: acceptably high CMC values

CCCCCCCCSC[C@H](N)C(=O)O [S-octyl cysteine, reference compound]
CMC in water (M) [1]: 0.006*^b M
solubility in water (in words) [2]: good solubility
Solubility in water up to minimum 0.01M [2]: Yes
Adsorption after 30 min (%) ([5]; 100 ml of 5 ppm arsenic solution, surfactant 0.001 M (D-dodecanoyl cystine 0.01 × 10^−3 M)): 0%
Arsenic removal after 90 minutes [5]: 0%
arsenic removal [5]: no arsenic removal was observed
Foaming test [3]: Failed
Foaming test ([3]; listed as single chain octyl based cysteine surfactant): failed the foaming test
CMC (in words) [4]: high CMC

CCCCCCCC(=O)N[C@@H](CS)C(=O)O [octanoyl-cysteine]
CMC in water (M) [1]: 0.12*^a M
Solubility in water up to minimum 0.01M [2]: Yes
Adsorption after 30 min (%) [5, 9]: 72.6%
Adsorption after 60 min (%) [5, 9]: 99.88%
Adsorption (%) ([5]; 100 ml of 5 ppm arsenic solution, purified product, Air): 99.9 (Air) %
Adsorption (%) ([5]; 100 ml of 5 ppm arsenic solution, purified product, N2 gas, listed as single chain octanoyl cysteine): 98.6 (N2) % and 99.4 (N2) %
Adsorption (%) ([5]; 100 ml of 5 ppm arsenic solution, raw product, N2 gas, listed as single chain octanoyl cysteine): 93.8 (N2) % and 88.2 (N2) %
Arsenic removal after 90 minutes [5]: 99.4%
arsenic removal [5]: 99.00%
average removal of arsenic ([5]; tests 1 and 2, raw unpurified product, 5 ppm feeding solution, after 90 minutes): 91.00%
average removal of arsenic ([5]; tests 3 and 4, purified (2 times recrystallized) product, after 30 minutes): 99.00%
Foaming test [3]: Passed
Adsorption after 30 min (%) ([6]; inlet gas Air): 92%
Adsorption after 60 min (%) ([6]; inlet gas Air): 99.1%
Adsorption after 30 min (%) ([6]; inlet gas N2): 94.9%
Adsorption after 60 min (%) ([6]; inlet gas N2): 99.4%
Adsorption after 30 min (%) ([7]; inlet gas Air): 99.6%
Adsorption after 60 min (%) ([7]; inlet gas Air): 99.6%
Adsorption after 30 min (%) ([7]; inlet gas N2): 99.59%
Adsorption after 60 min (%) ([7]; inlet gas N2): 99.96%
As(III) [8, 10]: 5259.4 µg/L
As(V) [8, 10]: 27.9 µg/L
Total As removal [8, 10]: 99.38%
Total As(V) reduced to As(III) [8, 10]: 99.47%
Total conc. [8, 10]: 5287.4 µg/L
Total As(V) reduced to As(III) ([8]; As in the waste collector (after 30 mins.), listed as single chain octanoyl-cysteine): about 99.47%
As(III) [8, 11]: 6.2 µg/L
As(V) [8, 11]: 27.1 µg/L
Total As removal [8, 11]: 99.38%
Total As(V) reduced to As(III) [8, 11]: 99.49%
Total conc. [8, 11]: 33.2 µg/L
Total As removal ([8]; As remaining in the flotation cell (after 90 mins), listed as single chain octanoyl-cysteine): 99.38%
As (V) remaining in the column reduced to As (III) ([8]; between the first 30 mins and 90 minutes, samples from inside the column): 0.02%
